Measurements: US20100035871A1, “BENZOXAZINE DERIVATIVES AND USES THEREOF” (priority 2006, published 2010)
Counter-ions that a name gives are not always drawn. Like-named read-outs stand apart in the source and are kept apart here.

Columns and labels:
human 5-HT2C receptor = biological target: T1, human 5-HT2C receptor (Homo sapiens, UniProt P28335); test: 5-HT2C receptor binding, [125I]DOI displacement, membranes of transfected CHO cells
T1 construct: expressed in transfected cells; host or cells: CHO (Chinese Hamster Ovary) cells; membrane preparation
T1 sequence (P28335 33-458): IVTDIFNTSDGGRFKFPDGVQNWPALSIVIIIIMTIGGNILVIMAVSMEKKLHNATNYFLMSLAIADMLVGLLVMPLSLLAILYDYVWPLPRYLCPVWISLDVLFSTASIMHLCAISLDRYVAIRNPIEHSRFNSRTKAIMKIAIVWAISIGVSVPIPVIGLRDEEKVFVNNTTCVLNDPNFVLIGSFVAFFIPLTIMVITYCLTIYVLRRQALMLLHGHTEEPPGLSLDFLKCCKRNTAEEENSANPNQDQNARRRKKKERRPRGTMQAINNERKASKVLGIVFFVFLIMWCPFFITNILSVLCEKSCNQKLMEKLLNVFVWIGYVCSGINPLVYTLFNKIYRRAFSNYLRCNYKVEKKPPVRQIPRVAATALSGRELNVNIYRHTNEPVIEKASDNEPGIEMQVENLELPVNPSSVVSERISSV

[1] = read-out: 5-HT2C Binding Ki avg

**Q.** With `COc1ccc(-c2cc(F)cc3c2NC(CN)CO3)cc1` (racemic) (as salt: hydrochloride) [Example 61, 1-[7-fluoro-5-(4-methoxyphenyl)-3,4-dihydro-2H-1,4-benzoxazin-3-yl]methanamine] as the compound, how does the melting point read?
**A.** 72 °C (dec.)

**Q.** For `NCC1COc2cc(F)cc(-c3ccccc3F)c2N1` (racemic) (as salt: hydrochloride) [Example 62, 1-[7-fluoro-5-(2-fluorophenyl)-3,4-dihydro-2H-1,4-benzoxazin-3-yl]methanamine], which melting point is on record?
**A.** 77 °C (dec.)

**Q.** Which melting point does the source give for `Cc1cc(Cl)ccc1-c1cc(F)cc2c1NC(CN)CO2` (racemic) (as salt: hydrochloride) [Example 63, 1-[5-(4-chloro-2-methylphenyl)-7-fluoro-3,4-dihydro-2H-1,4-benzoxazin-3-yl]methanamine] here?
**A.** 90 °C (dec.)

**Q.** With `COc1ccccc1-c1cc(F)cc2c1NC(CN)CO2` (racemic) (as salt: hydrochloride) [Example 64, 1-[7-fluoro-5-(2-methoxyphenyl)-3,4-dihydro-2H-1,4-benzoxazin-3-yl]methanamine] as the compound, how does the melting point read?
**A.** 84 °C (dec.)

**Q.** With `NCC1COc2cc(F)cc(-c3cccc(Cl)c3)c2N1` (racemic) (as salt: hydrochloride) [Example 65, 1-[5-(3-chlorophenyl)-7-fluoro-3,4-dihydro-2H-1,4-benzoxazin-3-yl]methanamine] as the compound, how does the melting point read?
**A.** 76 °C (dec.)

**Q.** With `CN1CC(CN)Oc2c(-c3cccc(Cl)c3)cccc21` (racemic) (as salt: hydrochloride) [Example 66, 1-[8-(3-chlorophenyl)-4-methyl-3,4-dihydro-2H-1,4-benzoxazin-2-yl]methanamine] as the compound, how does the melting point read?
**A.** 134 °C (dec.)

**Q.** Which Ki (human 5-HT2C receptor; [1]) does the source give for `CN1CC(CN)Oc2c(-c3ccccc3)cccc21` (racemic) [Example 9, 1-(4-Methyl-8-phenyl-3,4-dihydro-2H-1,4-benzoxazin-2-yl)methanamine] here?
**A.** 161 nM

**Q.** For `CCN1CC(CN)Oc2c(-c3ccccc3Cl)cccc21` (racemic) [Example 19, 1-[8-(2-Chlorophenyl)-4-ethyl-3,4-dihydro-2H-1,4-benzoxazin-2-yl]methanamine], which Ki (human 5-HT2C receptor; [1]) is on record?
**A.** 80.5 nM

**Q.** For `CCCN1CC(CN)Oc2c(-c3ccccc3Cl)cccc21` (racemic) [Example 21, 1-[8-(2-Chlorophenyl)-4-propyl-3,4-dihydro-2H-1,4-benzoxazin-2-yl]methanamine], which Ki (human 5-HT2C receptor; [1]) is on record?
**A.** 64 nM

**Q.** With `NCC1COc2cc(Cl)cc(-c3ccccc3C(F)(F)F)c2N1` (racemic) [Example 25, 1-{7-Chloro-5-[2-(trifluoromethyl)phenyl]-3,4-dihydro-2H-1,4-benzoxazin-3-yl}methanamine] as the compound, how does the Ki (human 5-HT2C receptor; [1]) read?
**A.** 68.2 nM

**Q.** For `COc1ccc(-c2cc(Cl)cc3c2NC(CN)CO3)cc1` (racemic) [Example 26, 1-[7-Chloro-5-(4-methoxyphenyl)-3,4-dihydro-2H-1,4-benzoxazin-3-yl]methanamine], which Ki (human 5-HT2C receptor; [1]) is on record?
**A.** 158 nM

**Q.** Which Ki (human 5-HT2C receptor; [1]) does the source give for `COc1ccc(-c2cc(Cl)cc3c2N(C)C(CN)CO3)c(C)c1` (racemic) [Example 28, 1-[7-chloro-5-(4-methoxy-2-methylphenyl)-4-methyl-3,4-dihydro-2H-1,4-benzoxazin-3-yl]methanamine] here?
**A.** 1120 nM

**Q.** For `NCC1COc2cc(Cl)cc(-c3ccccc3)c2N1` (racemic) [Example 29, 1-(7-chloro-5-phenyl-3,4-dihydro-2H-1,4-benzoxazin-3-yl)methanamine], which Ki (human 5-HT2C receptor; [1]) is on record?
**A.** 421 nM

**Q.** For `Cc1ccccc1-c1cc(Cl)cc2c1NC(CN)CO2` (racemic) [Example 30, 1-[7-chloro-5-(2-methylphenyl)-3,4-dihydro-2H-1,4-benzoxazin-3-yl]methanamine], which Ki (human 5-HT2C receptor; [1]) is on record?
**A.** 155 nM

**Q.** For `NCC1COc2cc(Cl)cc(-c3ccccc3F)c2N1` (racemic) [Example 33, 1-[7-chloro-5-(2-fluorophenyl)-3,4-dihydro-2H-1,4-benzoxazin-3-yl]methanamine], which Ki (human 5-HT2C receptor; [1]) is on record?
**A.** 152 nM

**Q.** With `COc1ccccc1-c1cc(Cl)cc2c1NC(CN)CO2` (racemic) [Example 34, 1-[7-chloro-5-(2-methoxyphenyl)-3,4-dihydro-2H-1,4-benzoxazin-3-yl]methanamine] as the compound, how does the Ki (human 5-HT2C receptor; [1]) read?
**A.** 749 nM

**Q.** For `Cc1cc(Cl)ccc1-c1cc(Cl)cc2c1NC(CN)CO2` (racemic) [Example 35, 1-[7-chloro-5-(4-chloro-2-methylphenyl)-3,4-dihydro-2H-1,4-benzoxazin-3-yl]methanamine], which Ki (human 5-HT2C receptor; [1]) is on record?
**A.** 173 nM

**Q.** For `NCC1COc2cc(Cl)cc(-c3ccc(Cl)cc3C(F)(F)F)c2N1` (racemic) [Example 37, 1-{7-chloro-5-[4-chloro-2-(trifluoromethyl)phenyl]-3,4-dihydro-2H-1,4-benzoxazin-3-yl}methanamine], which Ki (human 5-HT2C receptor; [1]) is on record?
**A.** 166 nM

**Q.** Which Ki (human 5-HT2C receptor; [1]) does the source give for `NCC1COc2cc(Cl)cc(-c3ccc(C(F)(F)F)cc3C(F)(F)F)c2N1` (racemic) [Example 38, 1-{5-[2,4-bis(trifluoromethyl)phenyl]-7-chloro-3,4-dihydro-2H-1,4-benzoxazin-3-yl}methanamine] here?
**A.** 287 nM

**Q.** With `COc1ccc(-c2cc(F)cc3c2NC(CN)CO3)c(C)c1` (racemic) [Example 56, 1-[7-fluoro-5-(4-methoxy-2-methylphenyl)-3,4-dihydro-2H-1,4-benzoxazin-3-yl]methanamine] as the compound, how does the Ki (human 5-HT2C receptor; [1]) read?
**A.** 160 nM

**Q.** With `NCC1COc2cc(F)cc(-c3ccccc3Cl)c2N1` (racemic) [Example 57, 1-[5-(2-chlorophenyl)-7-fluoro-3,4-dihydro-2H-1,4-benzoxazin-3-yl]methanamine] as the compound, how does the Ki (human 5-HT2C receptor; [1]) read?
**A.** 155 nM

**Q.** For `Cc1ccccc1-c1cc(F)cc2c1NC(CN)CO2` (racemic) [Example 58, 1-[7-fluoro-5-(2-methylphenyl)-3,4-dihydro-2H-1,4-benzoxazin-3-yl]methanamine], which Ki (human 5-HT2C receptor; [1]) is on record?
**A.** 155 nM

**Q.** Which Ki (human 5-HT2C receptor; [1]) does the source give for `Cc1ccc(-c2cc(F)cc3c2NC(CN)CO3)c(C(F)(F)F)c1` (racemic) [Example 60, 1-{7-fluoro-5-[4-methyl-2-(trifluoromethyl)phenyl]-3,4-dihydro-2H-1,4-benzoxazin-3-yl}methanamine] here?
**A.** 65.1 nM

**Q.** For `COc1ccc(-c2cc(F)cc3c2NC(CN)CO3)cc1` (racemic) [Example 61, 1-[7-fluoro-5-(4-methoxyphenyl)-3,4-dihydro-2H-1,4-benzoxazin-3-yl]methanamine], which Ki (human 5-HT2C receptor; [1]) is on record?
**A.** 380 nM

**Q.** With `NCC1COc2cc(F)cc(-c3ccccc3F)c2N1` (racemic) [Example 62, 1-[7-fluoro-5-(2-fluorophenyl)-3,4-dihydro-2H-1,4-benzoxazin-3-yl]methanamine] as the compound, how does the Ki (human 5-HT2C receptor; [1]) read?
**A.** 794 nM

**Q.** For `Cc1cc(Cl)ccc1-c1cc(F)cc2c1NC(CN)CO2` (racemic) [Example 63, 1-[5-(4-chloro-2-methylphenyl)-7-fluoro-3,4-dihydro-2H-1,4-benzoxazin-3-yl]methanamine], which Ki (human 5-HT2C receptor; [1]) is on record?
**A.** 227 nM

**Q.** Which Ki (human 5-HT2C receptor; [1]) does the source give for `COc1ccccc1-c1cc(F)cc2c1NC(CN)CO2` (racemic) [Example 64, 1-[7-fluoro-5-(2-methoxyphenyl)-3,4-dihydro-2H-1,4-benzoxazin-3-yl]methanamine] here?
**A.** 291 nM

**Q.** Which Ki (human 5-HT2C receptor; [1]) does the source give for `NCC1COc2cc(F)cc(-c3cccc(Cl)c3)c2N1` (racemic) [Example 65, 1-[5-(3-chlorophenyl)-7-fluoro-3,4-dihydro-2H-1,4-benzoxazin-3-yl]methanamine] here?
**A.** 497 nM

**Q.** For `CN1CC(CN)Oc2c(-c3cccc(Cl)c3)cccc21` (racemic) [Example 66, 1-[8-(3-chlorophenyl)-4-methyl-3,4-dihydro-2H-1,4-benzoxazin-2-yl]methanamine], which Ki (human 5-HT2C receptor; [1]) is on record?
**A.** 258 nM

**Q.** For `Cc1cc(Cl)ccc1-c1cccc2c1O[C@H](CN)CN2` [Example 42, 1-[(2R)-8-(4-chloro-2-methylphenyl)-3,4-dihydro-2H-1,4-benzoxazin-2-yl]methanamine], which Ki (human 5-HT2C receptor; [1]) is on record?
**A.** 529 nM

**Q.** For `NC[C@@H]1CNc2cccc(-c3ccccc3F)c2O1` [Example 43, 1-[(2R)-8-(2-fluorophenyl)-3,4-dihydro-2H-1,4-benzoxazin-2-yl]methanamine], which Ki (human 5-HT2C receptor; [1]) is on record?
**A.** 96.7 nM

**Q.** For `COc1ccc(-c2cccc3c2O[C@H](CN)CN3)c(C)c1` [Example 44, 1-[(2R)-8-(4-methoxy-2-methylphenyl)-3,4-dihydro-2H-1,4-benzoxazin-2-yl]methanamine], which Ki (human 5-HT2C receptor; [1]) is on record?
**A.** 143 nM

**Q.** For `COc1ccc(-c2cccc3c2O[C@H](CN)CN3)cc1` [Example 45, 1-[(2R)-8-(4-methoxyphenyl)-3,4-dihydro-2H-1,4-benzoxazin-2-yl]methanamine], which “5-HT2C Binding, % @1 μM” value (human 5-HT2C receptor; @1 μM) is on record?
**A.** 18% @1 μM

**Q.** Which Ki (human 5-HT2C receptor; [1]) does the source give for `COc1ccc(-c2cccc3c2O[C@H](CN)CN3)c(Cl)c1` [Example 46, 1-[(2R)-8-(2-chloro-4-methoxyphenyl)-3,4-dihydro-2H-1,4-benzoxazin-2-yl]methanamine] here?
**A.** 131 nM

**Q.** Which Ki (human 5-HT2C receptor; [1]) does the source give for `Cc1cc(Cl)ccc1-c1cccc2c1O[C@@H](CN)CN2` [Example 48, 1-[(2S)-8-(4-chloro-2-methylphenyl)-3,4-dihydro-2H-1,4-benzoxazin-2-yl]methanamine] here?
**A.** 99.3 nM

**Q.** With `NC[C@H]1CNc2cccc(-c3ccccc3F)c2O1` [Example 49, 1-[(2S)-8-(2-fluorophenyl)-3,4-dihydro-2H-1,4-benzoxazin-2-yl]methanamine] as the compound, how does the Ki (human 5-HT2C receptor; [1]) read?
**A.** 143 nM

**Q.** Which Ki (human 5-HT2C receptor; [1]) does the source give for `COc1ccc(-c2cccc3c2O[C@@H](CN)CN3)cc1` [Example 51, 1-[(2S)-8-(4-methoxyphenyl)-3,4-dihydro-2H-1,4-benzoxazin-2-yl]methanamine] here?
**A.** 136 nM

**Q.** For `CSc1ccc2c(c1)C(N1CCN(C)CC1)Cc1ccccc1S2` (stereo not drawn) [Methiothepin, reference compound], which Ki (human 5-HT2C receptor; reference compounds, value (95% confidence interval), [125I]DOI binding, read-out: Ki) is on record?
**A.** 4.6 nM

**Q.** For `COc1cc(CC(C)N)c(OC)cc1I` (stereo not drawn) [[^125I] DOI, reference compound], which Kd (human 5-HT2C receptor; saturation binding with increasing concentrations of [125I] DOI, read-out: dissociation constant, KD) is on record?
**A.** 0.4 nM
